Laboratory results from patent US20250136583A1, “NOVEL SALT FORMS OF ISOCHROMAN-IMIDAZOLE STRUCTURED ALPHA-2A ADRENOCEPTOR AGONIST” (ORION CORPORATION, priority 2022, published 2025).
Where a name gives a salt, the structure may show the parent alone.

Legend:
[1] = Chemical stability of the salts (stress at 60° C. and 75% relative humidity, purity by UHPLC); type: physicochemical; conditions: for Purity (%) of 1 day stress samples / Difference between reference and 1 day stressed sample: 1 day at 60° C. and 75% relative humidity; for Purity (%) of 1 day stress samples / Purity (%) of 14 day stress samples / Purity (%) of reference: UHPLC; for Difference between reference and 1 day stressed sample / Difference between reference and 14 day stressed sample: purity difference, in %; for Purity (%) of 14 day stress samples / Difference between reference and 14 day stressed sample: 14 days at 60° C. and 75% relative humidity; for Purity (%) of reference: unstressed sample
Experimental: The purity analyses were performed using Agilent UHPLC equipment with PDA/DAD detector at 210 nm wavelength and reverse phase liquid chromatography column Acquity UPLC HSS T3, 100×3.0 mm, 1.8 μm (Waters). The chromatography was performed with gradient run using acetonitrile and phosphate buffer (pH 3.0) as eluents.
The chemical stability of various salts of compound (I) was determined by stressing the salts for 1 and 14 days at 60° C. and 75% relative humidity. The unstressed sample was used as an reference. The purity of the samples were analyzed using UHPLC, and the purity difference between the stressed and reference was calculated.

[2] = Physical stability of the salts (storage at elevated temperature and relative humidity, re-analysis by XRPD); type: physicochemical; conditions: for Form after stability / Physical stability: solids exposed for 2 or 3 weeks at 40° C. and 70-80% relative humidity; for Form after stability: XRPD; for Physical stability: re-analyzed by XRPD; for Crystalline form conversion on storage: 40° C., 75% RH for 3 weeks
Experimental: XRPD measurements were performed with the X-ray powder diffractometer Bruker D8 Advance at room temperature, using a copper filled X-ray tube (40 kV×40 mA) as the X-ray source, CuKα (λ=1.5418 Å), a 0.6 mm divergence slit, 2.5° Soller slits on both the primary and secondary beams and the 1-dimensional LynxEye detector (with aperture angle of 2.91593°). Data collection was done in the range of 3.8-33° 2θ with 0.02° increments, at a scan speed of 0.3°/s.
A stability test was carried out for all crystalline salt forms resulted from the salt screen by exposing the solids for 2 or 3 weeks at 40° C. and 70-80% relative humidity. After exposure, the solids were re-analyzed by XRPD, followed by physical stability assessment.

[3] = listed as 1-Hydroxy-2-naphtoic acid salt

Row | Purity (%) of 1 day stress samples [1] [%] | Difference between reference and 1 day stressed sample [1] | Purity (%) of 14 day stress samples [1] [%] | Difference between reference and 14 day stressed sample [1] | Purity (%) of reference [1] [%] | Form after stability [2] | Physical stability [2] | Compound | other results
1 | 78.7 | 17.7 | 2.0 | 94.4 | 96.4 | Form 1 | Stable | COc1cccc2c1CCOC2C1=NCCN1 (centres unmarked) [Glutaric acid salt Form 1, 2-(5-methoxyisochroman-1-yl)-4,5-dihydro-1H-imidazole] | Physical stability ([2]; listed as glutaric acid): remained stable
2 |  |  |  |  |  | Form 2 | Stable | COc1cccc2c1CCOC2C1=NCCN1 (centres unmarked) [Saccharin salt Form 2, 2-(5-methoxyisochroman-1-yl)-4,5-dihydro-1H-imidazole] | Physical stability ([2]; listed as saccharin (form 2)): remained stable
3 | 99.8 | 0.0 | 99.8 | 0.0 | 99.8 | Form 1 | Stable | COc1cccc2c1CCOC2C1=NCCN1 (centres unmarked) [Ethane-1,2-disulfonic acid salt Form 1, 2-(5-methoxyisochroman-1-yl)-4,5-dihydro-1H-imidazole] | Chemical stability (in words) ([1]; summary statement): good chemical stability; Physical stability ([2]; listed as ethane-1,2-disulfonic acid): remained stable
4 |  |  |  |  |  | Amorphous | Unstable | COc1cccc2c1CCOC2C1=NCCN1 (centres unmarked) [2-Ketoglutaric acid salt Form 1, 2-(5-methoxyisochroman-1-yl)-4,5-dihydro-1H-imidazole] | Form after stability ([2]; listed as 2-ketoglutaric acid): turned into amorphous phase
5 |  |  |  |  |  | Form 2 | Unstable | COc1cccc2c1CCOC2C1=NCCN1 (centres unmarked) [Cyclamic acid salt Form 1, 2-(5-methoxyisochroman-1-yl)-4,5-dihydro-1H-imidazole] | Form after stability ([2]; listed as cyclamic acid (form 1)): completely
6 |  |  |  |  |  | Form 1 | Stable | COc1cccc2c1CCOC2C1=NCCN1 (centres unmarked) [1-Hydroxy-2-napthoic acid salt Form 1, 2-(5-methoxyisochroman-1-yl)-4,5-dihydro-1H-imidazole] | Purity (%) of 1 day stress samples [1, 3]: 95.4%; Difference between reference and 1 day stressed sample [1, 3]: 3.5; Purity (%) of 14 day stress samples [1, 3]: 0.6%; Difference between reference and 14 day stressed sample [1, 3]: 98.3; Purity (%) of reference [1, 3]: 98.9%; Physical stability ([2]; listed as 1-hydroxy-2-napthoic acid): remained stable
7 | 96.6 | 1.5 | 72.7 | 25.5 | 98.2 | Form 1 | Stable | COc1cccc2c1CCOC2C1=NCCN1 (centres unmarked) [Malonic acid salt Form 1, 2-(5-methoxyisochroman-1-yl)-4,5-dihydro-1H-imidazole] | Physical stability ([2]; listed as malonic acid): remained stable
8 |  |  |  |  |  | Form 2 | Unstable | COc1cccc2c1CCOC2C1=NCCN1 (racemic) [D,L-Lactic acid salt Form 1, 2-(5-methoxyisochroman-1-yl)-4,5-dihydro-1H-imidazole] | Form after stability ([2]; listed as D,L-lactic acid): completely
9 | 97.5 | 1.0 | 88.3 | 10.3 | 98.6 | Form 1 | Unstable | COc1cccc2c1CCOC2C1=NCCN1 [L-tartaric acid salt Form 2, 2-(5-methoxyisochroman-1-yl)-4,5-dihydro-1H-imidazole] | Crystalline form conversion on storage [2]: turned into form 1; Form after stability ([2]; listed as L-tartaric acid (form 2)): completely
10 | 95.0 | 2.1 | 91.5 | 5.6 | 97.1 |  |  | COc1cccc2c1CCOC2C1=NCCN1 (centres unmarked) [Saccharin salt, 2-(5-methoxyisochroman-1-yl)-4,5-dihydro-1H-imidazole] | 
11 |  |  |  |  |  | Form 1 + Form 2 |  | COc1cccc2c1CCOC2C1=NCCN1 (centres unmarked) [Saccharin salt Form 1, 2-(5-methoxyisochroman-1-yl)-4,5-dihydro-1H-imidazole] | Crystalline form conversion on storage [2]: partially conversion into form 2; Form after stability ([2]; listed as saccharin (form 1)): changed partially
12 | 97.6 | −0.3 | 98.0 | −0.8 | 97.2 | Form 2 | Stable | COc1cccc2c1CCOC2C1=NCCN1 (centres unmarked) [Fumaric acid salt Form 2, 2-(5-methoxyisochroman-1-yl)-4,5-dihydro-1H-imidazole] | Physical stability ([2]; listed as fumaric acid (form 2)): remained stable
13 | 64.0 | 35.7 | 33.3 | 66.4 | 99.6 | Form 1 | Stable | COc1cccc2c1CCOC2C1=NCCN1 (centres unmarked) [Maleic acid salt Form 1, 2-(5-methoxyisochroman-1-yl)-4,5-dihydro-1H-imidazole] | Physical stability ([2]; listed as maleic acid): remained stable
14 |  |  |  |  |  | Amorphous | Unstable | COc1cccc2c1CCOC2C1=NCCN1 (centres unmarked) [Methanesulfonic acid salt Form 1, 2-(5-methoxyisochroman-1-yl)-4,5-dihydro-1H-imidazole] | Form after stability ([2]; listed as methanesulfonic acid): turned into amorphous phase
15 |  |  |  |  |  | Form 1 | Stable | COc1cccc2c1CCOC2C1=NCCN1 (centres unmarked) [Fumaric acid salt Form 1, 2-(5-methoxyisochroman-1-yl)-4,5-dihydro-1H-imidazole] | Physical stability ([2]; listed as fumaric acid (form 1)): remained stable
16 |  |  |  |  |  | extra peaks in the XRPD pattern |  | COc1cccc2c1CCOC2C1=NCCN1 [L-Glutamic acid salt Form 1, 2-(5-methoxyisochroman-1-yl)-4,5-dihydro-1H-imidazole] | 
17 |  |  |  |  |  |  |  | COc1cccc2c1CCOC2C1=NCCN1 (centres unmarked) [Cyclamic acid salt Form 2, 2-(5-methoxyisochroman-1-yl)-4,5-dihydro-1H-imidazole] | Form after stability ([2]; listed as cyclamic acid (form 2)): extra peaks in the XRPD pattern
18 |  |  |  |  |  | Form 1 + amorphous | Unstable | COc1cccc2c1CCOC2C1=NCCN1 [L-Aspartic acid salt Form 1, 2-(5-methoxyisochroman-1-yl)-4,5-dihydro-1H-imidazole] | Form after stability ([2]; listed as L-aspartic acid): an amorphous phase with characteristic peaks of the counter-ion
